For four compounds, growth results are on record in ChEMBL document CHEMBL3994622, “Design and synthesis of new RAF kinase-inhibiting antiproliferative quinoline derivatives. Part 2: Diarylurea derivatives” (Eur J Med Chem, 2017).

Common to all, as to type: functional
Assay [1] relates to HL-60(TB). Description: Growth inhibition of human HL-60(TB) cells assessed as cell growth at 0.01 uM incubated for 48 hrs by sulforhodamine B assay relative to control. As to conditions: HL-60, 48 h, read-out: Activity.
Assay [2] concerns HCT-116. Description: Growth inhibition of human HCT116 cells assessed as cell growth at 0.01 uM incubated for 48 hrs by sulforhodamine B assay relative to control. As to conditions: HCT-116, 48 h, read-out: Activity. In general terms: The SRB assay estimates cell density from bound dye.
Assay [3] concerns HT-29. Description: Growth inhibition of human HT-29 cells assessed as cell growth at 0.01 uM incubated for 48 hrs by sulforhodamine B assay relative to control. Particulars: HT-29, 48 h, read-out: Activity.
For assay [4], the system named is NCI-H226. The experiment in a line: Growth inhibition of human NCI-H226 cells assessed as cell growth at 0.1 uM incubated for 48 hrs by sulforhodamine B assay relative to control. As to conditions: NCI-H226, 48 h, read-out: Activity.
For assay [5], the system named is OVCAR-5. The experiment in a line: Growth inhibition of human OVCAR5 cells assessed as cell growth at 0.1 uM incubated for 48 hrs by sulforhodamine B assay relative to control. Particulars: OVCAR-5, 48 h, read-out: Activity.
The subject of assay [6] is Hs-578T. Description: Growth inhibition of human Hs 578T cells assessed as cell growth at 0.1 uM incubated for 48 hrs by sulforhodamine B assay relative to control. As to conditions: read-out: Activity.
Assay [7] deals with CCRF-CEM. The experiment in a line: Growth inhibition of human CCRF-CEM cells assessed as cell growth at 1 uM incubated for 48 hrs by sulforhodamine B assay relative to control. Particulars: read-out: Activity.
Assay [8] relates to MDA-MB-435. The experiment in a line: Growth inhibition of human MDA-MB-435 cells assessed as cell growth at 1 uM incubated for 48 hrs by sulforhodamine B assay relative to control. As to conditions: MDA-MB-435, 48 h, read-out: Activity.
Assay [9] deals with SK-MEL-2. Description: Growth inhibition of human SK-MEL-2 cells assessed as cell growth at 1 uM incubated for 48 hrs by sulforhodamine B assay relative to control. Particulars: SK-MEL-2, 48 h, read-out: Activity.
Assay [10] deals with MCF7. Description: Growth inhibition of human MCF7 cells assessed as cell growth at 1 uM incubated for 48 hrs by sulforhodamine B assay relative to control. Particulars: MCF7, 48 h, read-out: Activity.
For assay [11], the system named is SF-295. The experiment in a line: Growth inhibition of human SF295 cells assessed as cell growth at 10 uM incubated for 48 hrs by sulforhodamine B assay relative to control. Particulars: SF-295, 48 h, read-out: Activity.
Assay [12] relates to SF-539. The experiment in a line: Growth inhibition of human SF539 cells assessed as cell growth at 10 uM incubated for 48 hrs by sulforhodamine B assay relative to control. Particulars: SF-539, 48 h, read-out: Activity.
Assay [13] relates to OVCAR-4. The experiment in a line: Growth inhibition of human OVCAR4 cells assessed as cell growth at 100 uM incubated for 48 hrs by sulforhodamine B assay relative to control. Particulars: OVCAR-4, 48 h, read-out: Activity.
Assay [14] deals with MDA-MB-231. The experiment in a line: Growth inhibition of human MDA-MB-231 cells assessed as cell growth at 100 uM incubated for 48 hrs by sulforhodamine B assay relative to control. As to conditions: MDA-MB-231, 48 h, read-out: Activity.
The subject of assay [15] is Hs-578T. Description: Growth inhibition of human Hs 578T cells assessed as cell growth at 100 uM incubated for 48 hrs by sulforhodamine B assay relative to control. Particulars: read-out: Activity.
Assay [16] concerns M14. The experiment in a line: Growth inhibition of human M14 cells assessed as cell growth at 0.003 uM incubated for 48 hrs by sulforhodamine B assay relative to control. As to conditions: M14, 48 h, read-out: Activity.
Assay [17] concerns SK-MEL-28. Description: Growth inhibition of human SK-MEL-28 cells assessed as cell growth at 0.003 uM incubated for 48 hrs by sulforhodamine B assay relative to control. Particulars: SK-MEL-28, 48 h, read-out: Activity.
Assay [18] deals with CCRF-CEM. The experiment in a line: Growth inhibition of human CCRF-CEM cells assessed as cell growth at 0.03 uM incubated for 48 hrs by sulforhodamine B assay relative to control. As to conditions: read-out: Activity.
Assay [19] relates to NCI-H23. The experiment in a line: Growth inhibition of human NCI-H23 cells assessed as cell growth at 0.03 uM incubated for 48 hrs by sulforhodamine B assay relative to control. Particulars: NCI-H23, 48 h, read-out: Activity.
The subject of assay [20] is NCI-H322M. Description: Growth inhibition of human NCI-H322M cells assessed as cell growth at 0.03 uM incubated for 48 hrs by sulforhodamine B assay relative to control. As to conditions: read-out: Activity.
Assay [21] concerns NCI-H460. Description: Growth inhibition of human NCI-H460 cells assessed as cell growth at 0.03 uM incubated for 48 hrs by sulforhodamine B assay relative to control. Particulars: NCI-H460, 48 h, read-out: Activity.
Assay [22] deals with NCI-H522. The experiment in a line: Growth inhibition of human NCI-H522 cells assessed as cell growth at 0.3 uM incubated for 48 hrs by sulforhodamine B assay relative to control. Particulars: NCI-H522, 48 h, read-out: Activity.
Assay [23] deals with KM12. The experiment in a line: Growth inhibition of human KM12 cells assessed as cell growth at 0.3 uM incubated for 48 hrs by sulforhodamine B assay relative to control. As to conditions: KM12, 48 h, read-out: Activity.
The test system of assay [24] is SW-620. The experiment in a line: Growth inhibition of human SW620 cells assessed as cell growth at 0.3 uM incubated for 48 hrs by sulforhodamine B assay relative to control. Particulars: SW-620, 48 h, read-out: Activity.
Assay [25] deals with SK-OV-3. The experiment in a line: Growth inhibition of human SKOV3 cells assessed as cell growth at 0.3 uM incubated for 48 hrs by sulforhodamine B assay relative to control. Particulars: SK-OV-3, 48 h, read-out: Activity.
The subject of assay [26] is HOP-62. Description: Growth inhibition of human HOP62 cells assessed as cell growth at 3 uM incubated for 48 hrs by sulforhodamine B assay relative to control. As to conditions: HOP-62, 48 h, read-out: Activity.
Assay [27] deals with HCT-116. The experiment in a line: Growth inhibition of human HCT116 cells assessed as cell growth at 3 uM incubated for 48 hrs by sulforhodamine B assay relative to control. Particulars: HCT-116, 48 h, read-out: Activity.
The test system of assay [28] is SK-MEL-5. Description: Growth inhibition of human SK-MEL-5 cells assessed as cell growth at 3 uM incubated for 48 hrs by sulforhodamine B assay relative to control. Particulars: SK-MEL-5, 48 h, read-out: Activity.
The subject of assay [29] is TK-10. The experiment in a line: Growth inhibition of human TK10 cells assessed as cell growth at 3 uM incubated for 48 hrs by sulforhodamine B assay relative to control. As to conditions: TK-10, 48 h, read-out: Activity.
Assay [30] deals with HCT-15. The experiment in a line: Growth inhibition of human HCT15 cells assessed as cell growth at 30 uM incubated for 48 hrs by sulforhodamine B assay relative to control. Particulars: HCT-15, 48 h, read-out: Activity.
The subject of assay [31] is U-251. The experiment in a line: Growth inhibition of human U251 cells assessed as cell growth at 30 uM incubated for 48 hrs by sulforhodamine B assay relative to control. As to conditions: U-251, 48 h, read-out: Activity.
Assay [32] concerns UO-31. Description: Growth inhibition of human UO31 cells assessed as cell growth at 30 uM incubated for 48 hrs by sulforhodamine B assay relative to control. Particulars: UO-31, 48 h, read-out: Activity.
Assay [33] concerns PC-3. The experiment in a line: Growth inhibition of human PC3 cells assessed as cell growth at 30 uM incubated for 48 hrs by sulforhodamine B assay relative to control. As to conditions: PC-3, 48 h, read-out: Activity.

Turning to `COc1cc2cc(Oc3ccc(NC(=O)Nc4cc(C(F)(F)F)cc(C(F)(F)F)c4)cc3)c(C)nc2cc1OC`, the growth at 0.01 µM in assay [1] is 89%; in assay [2], 97%; in [3], 97%. In addition, the growth at 0.1 µM in [4] is 101%; in assay [5], 92%; in [6] it was 109%. The growth at 1 µM in [7] stood at 39%; in assay [8] it was 84%; in [9], 85%; in assay [10], 35%. Moreover, the growth at 10 µM is -76% in assay [11] and -72% in assay [12]. Also, the growth at 100 µM was -52% in assay [13], -83% in [14] and -9% in assay [15].

For the compound `Cc1nc2cc(O)c(O)cc2cc1Oc1ccc(NC(=O)Nc2ccc(Cl)c(Cl)c2)cc1`, the growth at 0.003 µM stood at 96% in [16] and 90% in assay [17]. The growth at 0.03 µM was determined as 95% in [18], 92% in assay [19], 108% in [20] and 99% in assay [21]. The growth at 0.3 µM in assay [22] is 93%; in assay [23], 104%; in assay [24], 100%; in assay [25], 108%. Moreover, the growth at 3 µM came to 87% in assay [26], 42% in [27], 85% in [28] and 98% in [29]. The growth at 30 µM in assay [30] is 9%; in assay [31], 3%; in assay [32], -51%; in [33] it was 6%.

Regarding `COc1cc2cc(Oc3ccc(NC(=O)Nc4ccc(Cl)c(Cl)c4)cc3)c(C)nc2cc1OC`, the growth at 0.01 µM in assay [1] was found to be 104%; in assay [2], 89%; in assay [3], 108%. Further, the growth at 0.1 µM was found to be 107% in assay [4], 104% in [5] and 99% in assay [6]. The growth at 1 µM stood at 78% in assay [7], 85% in assay [8], 121% in [9] and 86% in assay [10]. In addition, the figures for the growth at 10 µM in assay [11] and in [12] were -22% and 29%, respectively. In addition, the growth at 100 µM is -85% in [13], -100% in [14] and -45% in assay [15].

For the compound `COc1cc2cc(Oc3ccc(NC(=O)Nc4ccc(Cl)c(C(F)(F)F)c4)cc3)c(C)nc2cc1OC`, the figures for the growth at 0.003 µM in [16] and in [17] were 97% and 99%, respectively. Moreover, the growth at 0.03 µM in assay [18] is 103%; in [19], 93%; in assay [20], 90%; in [21], 105%. The growth at 0.3 µM in assay [22] turned out to be 85%; in [23], 96%; in assay [24], 99%; in assay [25] it was 103%. In addition, the growth at 3 µM was 26% in assay [26], 7% in assay [27], -20% in [28] and 18% in [29]. Moreover, the growth at 30 µM in assay [30] is -76%; in [31], -89%; in assay [32] it was -71%; in assay [33], -50%.
